Measured values as given in paper PMC6550521, “Stress-Induced Changes in the Lipid Microenvironment of β-(1,3)-D-Glucan Synthase Cause Clinically Important Echinocandin Resistance in Aspergillus fumigatus” (mBio, 2019).
Starred links: 1 amine or outer side, 2 acyl side, 3 side chain; linkers in the order of their positions; H or OH if unused. Positions of bridges follow the written chain, without caps; N, C: chain ends. Non-standard residues stand in square brackets, D forms with d. Residues, ends and D or L forms follow the SMILES beside them. *: point of attachment. Orn(4R-OH,5R-OCH2CH2NMe3+) = C[N+](C)(C)CCO[C@@H](N[*:3])[C@H](O)C[C@H](N[*:1])C(=O)[*:2]; hTyr(3S-OH,4S-OH,3'-OSO3H) = N[C@H](C(=O)O)[C@H](O)[C@@H](O)c1ccc(O)c(OS(=O)(=O)O)c1; pTerphenylCO(4''-OnC5H11) = CCCCCOc1ccc(-c2ccc(-c3ccc(C(=O)*)cc3)cc2)cc1; Orn(4R-OH,5R-OH) = O=C([C@H](C[C@@H](O)[C@@H](O)N[*:3])N[*:1])[*:2]; hTyr(3S-OH,4S-OH) = N[C@H](C(=O)O)[C@H](O)[C@@H](O)c1ccc(O)cc1; Pro(3S-OH,4S-Me) = C[C@H]1CN[C@H](C(=O)O)[C@H]1O; X1 = CCCCCOc1ccc(-c2cc(-c3ccc(C(=O)*)cc3)no2)cc1; Gln(3R-OH) = NC(=O)C[C@@H](O)[C@H](N)C(=O)O; Hyp = O=C(O)[C@@H]1C[C@@H](O)CN1

Legend:
A. fumigatus RG101 [1] = format: cell-based, Aspergillus fumigatus; conditions: for Growth phenotype of RG101 with drug alone: 1 μg/ml drug, RPMI 1640, absence of CAS; for Growth phenotype of RG101 with drug alone / Drug susceptibility testing result, RG101: 24 h; for Drug susceptibility testing result, RG101: Fig 1B
Procedure: The following drugs (supplier) were tested: caspofungin (Merck & Co., Inc.), micafungin (Astellas Pharma US, Inc.), anidulafungin (Pfizer Inc.), itraconazole (Sigma-Aldrich), voriconazole (Pfizer Inc.), and amphotericin B (Sigma-Aldrich). In addition, rezafungin and ibrexafungerp were obtained from Cidara Therapeutics and Scynexis Inc., respectively.

[2] = system: A. fumigatus S679P (fks1 Ser-679-Pro mutant); test: Antifungal susceptibility testing (MEC, CLSI M38-A2); format: cell-based, Aspergillus fumigatus
Procedure: (§1) Minimum effective concentrations (MECs) for A. fumigatus strains were determined according to CLSI document M38-A2 ([48]) and defined as the lowest drug concentration that led to the growth of small, rounded, compact hyphal forms compared to the hyphal growth seen in the drug-free growth control wells. The following drugs (supplier) were tested: caspofungin (Merck & Co., Inc.), micafungin (Astellas Pharma US, Inc.), anidulafungin (Pfizer Inc.), itraconazole (Sigma-Aldrich), voriconazole (Pfizer Inc.), and amphotericin B (Sigma-Aldrich). In addition, rezafungin and ibrexafungerp were obtained from Cidara Therapeutics and Scynexis Inc., respectively.

A. fumigatus ATCC 13073 = test: as above; format: cell-based, Aspergillus fumigatus; conditions: for Drug susceptibility testing result, ATCC 13073: 24 h, Fig 1B
Procedure: as §1

A. fumigatus RG101 [3] = test: Acute pulmonary aspergillosis model in neutropenic DBA/2 mice, lung fungal burden by qPCR; format: in vivo, Aspergillus fumigatus
Procedure: Resistance of RG101 to CAS in vivo was tested in an acute pulmonary aspergillosis model. Thirty inbred DBA/2 mice were rendered neutropenic and infected with 1 × 10^6 RG101 conidia intratracheally. The mice were then treated with CAS (5 mg/kg of body weight), MFG (5 mg/kg), or vehicle daily for 5 days, and lung burdens were determined using quantitative PCR (qPCR). Details of the experiment are provided in Text S1 in the supplemental material.
All animal experiments performed were approved by the Rutgers University Institutional Animal Care and Use Committee. Thirty female DBA/2 mice [The Jackson Laboratory, Bar Harbor, ME] were used in the experiment. The mice were housed in cages equipped with HEPA filters and were allowed free access to food and water. To establish neutropenia, mice were immunosuppressed with cyclophosphamide on days -4 (150 mg/kg), -1 and +2 (100 mg/kg) intraperitoneally (ip) and hydrocortisone on day -1 (200 mg/kg) via subcutaneous injection (sc). The animals were given prophylaxis sc ceftazidime (50 mg/kg) on all days to prevent secondary bacterial infections. A. fumigatus RG101 was streaked out from a frozen glycerol stock and cultured on Potato dextrose agar (PDA) slant for 2 days. The spores were harvested in phosphate-buffered saline (PBS) with 0.05% (v/v) Tween 20 and counted in a hemocytometer. The mice were briefly anesthetized IP Ketamine (65 mg/kg)/Xylazine (5 mg/kg) and infected with 1×10^6 spores of RG101 in 25 µL volume via intratracheal instillation. The 30 RG101 infected mice were randomized into following treatment arms for IP treatment: vehicle, CAS (5 mg/kg), and MFG (5 mg/kg). The first treatment was given at 3 h post infection (PI) and continued daily treatments were administered. On day 5 PI, mice were humanely euthanized via CO2 narcosis. Lungs were excised and homogenized in 1 ml of sterile PBS using a 2 ml tube containing ceramic spheres by MP Biomedicals (116913500). Tissue was then homogenized in 20 s bursts in a mini bead beater (MP FastPrep-24) followed by cooling on ice. DNA was then isolated from an aliquot of the lung homogenate (100 μl) using the QIAamp DNA Mini Kit by Qiagen (51304) and analyzed by real-time quantitative PCR (qPCR) using primers specific for A. fumigatus 18S rRNA genes (Wiederhold et al 2004).

[4] = molecular target: β-(1,3)-D-glucan synthase of RG101 (Aspergillus fumigatus, UniProt Q4WLT4); test: Glucan synthase kinetic inhibition assay, enzyme from RG101; format: biochemical; conditions: enzyme from RG101 grown at 4 μg/ml CAS
Chain of β-(1,3)-D-glucan synthase of RG101 (Q4WLT4 1-1904): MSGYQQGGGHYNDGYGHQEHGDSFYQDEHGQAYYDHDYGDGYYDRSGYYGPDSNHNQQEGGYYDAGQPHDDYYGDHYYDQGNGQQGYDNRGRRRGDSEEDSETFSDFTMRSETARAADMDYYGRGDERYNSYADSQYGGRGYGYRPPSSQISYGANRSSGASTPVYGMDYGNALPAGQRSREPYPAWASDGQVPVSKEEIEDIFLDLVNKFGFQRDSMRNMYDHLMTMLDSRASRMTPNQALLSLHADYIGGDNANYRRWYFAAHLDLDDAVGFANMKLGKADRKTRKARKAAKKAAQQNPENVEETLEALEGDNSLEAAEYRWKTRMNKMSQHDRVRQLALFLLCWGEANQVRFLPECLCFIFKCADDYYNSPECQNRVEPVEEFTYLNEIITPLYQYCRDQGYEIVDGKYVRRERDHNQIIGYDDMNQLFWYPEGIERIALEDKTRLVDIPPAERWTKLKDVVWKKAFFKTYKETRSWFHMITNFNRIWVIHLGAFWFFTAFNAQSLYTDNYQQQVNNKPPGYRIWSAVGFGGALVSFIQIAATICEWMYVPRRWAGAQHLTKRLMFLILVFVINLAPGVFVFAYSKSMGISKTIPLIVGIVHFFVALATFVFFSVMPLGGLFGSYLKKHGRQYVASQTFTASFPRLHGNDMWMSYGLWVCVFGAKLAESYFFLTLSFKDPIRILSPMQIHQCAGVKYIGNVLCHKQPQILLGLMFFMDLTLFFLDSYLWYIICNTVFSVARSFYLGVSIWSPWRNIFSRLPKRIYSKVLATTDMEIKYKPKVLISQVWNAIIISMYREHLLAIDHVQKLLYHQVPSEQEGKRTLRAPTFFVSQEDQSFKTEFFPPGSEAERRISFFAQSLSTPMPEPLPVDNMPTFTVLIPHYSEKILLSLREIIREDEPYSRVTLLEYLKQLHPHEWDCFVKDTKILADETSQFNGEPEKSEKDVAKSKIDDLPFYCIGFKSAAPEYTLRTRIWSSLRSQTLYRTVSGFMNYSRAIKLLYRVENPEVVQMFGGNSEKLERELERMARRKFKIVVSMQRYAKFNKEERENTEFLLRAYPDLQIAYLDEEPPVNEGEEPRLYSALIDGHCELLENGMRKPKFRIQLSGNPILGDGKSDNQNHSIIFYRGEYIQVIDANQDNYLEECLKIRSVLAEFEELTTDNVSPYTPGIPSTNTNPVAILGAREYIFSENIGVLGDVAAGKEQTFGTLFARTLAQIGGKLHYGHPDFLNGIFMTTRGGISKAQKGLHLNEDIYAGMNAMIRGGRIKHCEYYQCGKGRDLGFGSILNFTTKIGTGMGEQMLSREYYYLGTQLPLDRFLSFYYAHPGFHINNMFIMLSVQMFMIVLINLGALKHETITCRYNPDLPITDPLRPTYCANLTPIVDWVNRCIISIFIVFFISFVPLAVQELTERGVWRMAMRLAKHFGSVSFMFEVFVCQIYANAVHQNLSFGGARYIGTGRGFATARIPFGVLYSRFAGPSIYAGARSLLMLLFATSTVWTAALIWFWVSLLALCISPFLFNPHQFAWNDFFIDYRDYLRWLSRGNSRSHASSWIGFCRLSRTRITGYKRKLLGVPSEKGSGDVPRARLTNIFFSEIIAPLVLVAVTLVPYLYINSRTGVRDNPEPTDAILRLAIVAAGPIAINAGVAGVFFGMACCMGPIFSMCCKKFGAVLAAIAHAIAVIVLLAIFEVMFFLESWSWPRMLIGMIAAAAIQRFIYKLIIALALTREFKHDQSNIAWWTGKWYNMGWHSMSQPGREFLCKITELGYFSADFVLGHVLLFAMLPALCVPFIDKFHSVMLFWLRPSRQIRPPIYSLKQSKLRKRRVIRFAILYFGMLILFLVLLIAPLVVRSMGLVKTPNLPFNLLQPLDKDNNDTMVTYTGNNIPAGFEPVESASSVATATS
Procedure: ATCC 13073 or RG101 was grown in liquid YPD medium at 37°C for 16 h. Partially purified glucan synthase was isolated by the product entrapment method, as previously described ([21]). Sensitivity to echinocandin drugs was measured by glucan synthase assay, using a 96-well multiscreen high-throughput screen filtration system (Millipore Corporation, Bedford, MA) in a final volume of 100 μl. Inhibition of the enzyme by the drug was analyzed after incubation of the enzyme with a radioactive substrate over a broad range of concentrations (0 to 10,000 ng/ml) of echinocandins for 1 h at room temperature. Radioactivity from the enzyme product, β-(1,3)-D-glucan, was measured. Inhibition profiles were determined using a sigmoidal response curve fitting algorithm with GraphPad Prism software (v 7.04).
To study the effect of lipids on the enzyme, dihydrosphingosine, phytosphingosine, or phytoceramide C2 (Sigma-Aldrich D6783, P2795, and C8105, respectively) was added directly to the assay mixture and coincubated with an echinocandin for 1 h at room temperature.

[5] = system: Aspergillus fumigatus clinical isolate 32458; test: Antifungal susceptibility testing (MEC, CLSI M38-A2); format: cell-based; conditions: clinical isolate 32458, fks1 WT
Procedure: as §1

[6] = system: Aspergillus fumigatus clinical isolate 32315; test: as above; format: cell-based; conditions: clinical isolate 32315, fks1 WT
Procedure: as §1

[7] = system: Aspergillus fumigatus clinical isolate 68284B; test: as above; format: cell-based; conditions: fks1 WT
Procedure: as §1

[8] = system: Aspergillus fumigatus clinical isolate 117; test: as above; format: cell-based; conditions: clinical isolate 117, fks1 WT
Procedure: as §1

[9] = system: Aspergillus fumigatus clinical isolate 2770; test: as above; format: cell-based; conditions: clinical isolate 2770, fks1 WT
Procedure: as §1

[10] = system: reactive oxygen species (ROS) in A. fumigatus RG101; test: ROS production, DCFDA fluorescence assay; format: cell-based, Aspergillus fumigatus; conditions: RG101
Procedure: ROS production in mycelia was measured using a protocol previously described by Blatzer et al. ([51]) with a few changes. Suspensions of 10^4 spores/ml of ATCC 13073 and RG101 were grown in static culture in complete supplement mixture (CSM) medium for 16 h in a 96-well microplate at 37°C. After incubation, the mycelia were washed once with CSM, 10 μM 2′,7′–dichlorofluorescin diacetate (DCFDA) dye was added, and cells were incubated in the dark at 37°C for 30 min. Cells were then washed three times with phosphate-buffered saline (PBS), and a final concentration of 1 μg/ml of each echinocandin in CSM medium was added to different wells. Fluorescence intensity (excitation at 485 nm and emission at 530 nm) was measured for 1 h in a microplate reader (Tecan Infinite M200 Pro). Mycelia stained with DCFDA without any drug were used as a control.

[11] = thiourea 15 mM with CAS 1 μg/ml

Row | SMILES | Growth phenotype of RG101 with drug in combination with CAS (A. fumigatus RG101 [1]) | Growth phenotype of RG101 with drug alone (A. fumigatus RG101 [1]) | Drug susceptibility testing result, ATCC 13073 (A. fumigatus ATCC 13073) [µg/mL] | Drug susceptibility testing result, RG101 (A. fumigatus RG101 [1]) [µg/mL] | other results
1 | CC(C)[C@@H](C)[C@@]1(C)CC[C@]2(C)[C@H]3CC[C@@H]4[C@@]5(COC[C@@]4(C)[C@@H](OC[C@](C)(N)C(C)(C)C)[C@H](n4ncnc4-c4ccncc4)C5)C3=CC[C@@]2(C)[C@@H]1C(=O)O [IFG, ibrexafungerp] | cross-resistance | sensitive | – | – | –
2 | CCCCCOc1ccc(-c2cc(-c3ccc(C(=O)N[C@H]4C[C@@H](O)[C@@H](O)NC(=O)[C@@H]5[C@@H](O)[C@@H](C)CN5C(=O)[C@H]([C@H](O)CC(N)=O)NC(=O)[C@H]([C@H](O)[C@@H](O)c5ccc(O)c(OS(=O)(=O)O)c5)NC(=O)[C@@H]5C[C@@H](O)CN5C(=O)[C@H]([C@@H](C)O)NC4=O)cc3)no2)cc1 [MFG, micafungin] (X1-[Orn(4R-OH,5R-OH)]T[Hyp][hTyr(3S-OH,4S-OH,3'-OSO3H)][Gln(3R-OH)][Pro(3S-OH,4S-Me)]; lactam 1-C) | cross-resistance | sensitive | 0.03 | 0.03 | MEC (minimum effective concentration) ([2]; S679P, fks1 Ser-679-Pro): 16 µg/mL; MEC (minimum effective concentration) (A. fumigatus ATCC 13073; ATCC 13073, fks1 WT): 0.03 µg/mL; Decrease in lung burden versus vehicle-treated group (A. fumigatus RG101 [3]; RG101, 5 mg/kg daily for 5 days): ~5 fold; Average fungal lung burden (A. fumigatus RG101 [3]; RG101 intratracheal, 5 mg/kg daily IP for 5 days, qPCR): 5.2 ng fungal DNA per lung; IC50 [4]: > 7.87 µM; MEC (minimum effective concentration) [5]: 2 µg/mL; MEC (minimum effective concentration) [6]: 2 µg/mL; MEC (minimum effective concentration) [7]: 4 µg/mL; MEC (minimum effective concentration) [8]: 4 µg/mL; MEC (minimum effective concentration) [9]: 2 µg/mL
3 | C[C@@H]1[C@H](O)[C@@H](C)/C=C/C=C/C=C/C=C/C=C/C=C/C=C/[C@H](O[C@@H]2O[C@H](C)[C@@H](O)[C@H](N)[C@@H]2O)C[C@@H]2O[C@](O)(C[C@@H](O)C[C@@H](O)[C@H](O)CC[C@@H](O)C[C@@H](O)CC(=O)O[C@H]1C)C[C@H](O)[C@H]2C(=O)O [Amphotericin B, amphotericin B] | – | – | 0.5 | 0.5 | –
4 | NC(N)=S [thiourea] | – | – | – | – | Effect on CAS resistance of S679P [2, 11]: no effect; Effect on CAS phenotype of ATCC 13073 (A. fumigatus ATCC 13073; [11]): no change; Effect on CAS-induced breakthrough resistance phenotype of RG101 (A. fumigatus RG101 [1]; [11]): reversed; Reduction of CAS-induced ROS levels ([10]; 15 mM thiourea): 4 fold
5 | C[C@@H](c1ncncc1F)[C@](O)(Cn1cncn1)c1ccc(F)cc1F [Voriconazole, voriconazole] | – | – | 0.12 | 0.12 | –
6 | CCCCCC[C@H]1C(=O)O[C@H](C)[C@H](NC(=O)c2cccc(NC=O)c2O)C(=O)O[C@@H](C)[C@@H]1OC(=O)CC(C)C [antimycin A] | – | – | – | – | Decrease of CAS-induced ROS production ([10]; 0.5 μg/ml antimycin A): over 2 fold
7 | CCC(C)n1ncn(-c2ccc(N3CCN(c4ccc(OCC5COC(Cn6cncn6)(c6ccc(Cl)cc6Cl)O5)cc4)CC3)cc2)c1=O (stereo not drawn) [Itraconazole, itraconazole] | – | – | 0.5 | 0.5 | –
8 | CCCCCOc1ccc(-c2ccc(-c3ccc(C(=O)N[C@H]4C[C@@H](O)[C@@H](OCC[N+](C)(C)C)NC(=O)[C@@H]5[C@@H](O)[C@@H](C)CN5C(=O)[C@H]([C@@H](C)O)NC(=O)[C@H]([C@H](O)[C@@H](O)c5ccc(O)cc5)NC(=O)[C@@H]5C[C@@H](O)CN5C(=O)[C@H]([C@@H](C)O)NC4=O)cc3)cc2)cc1 [RZF, rezafungin] ({pTerphenylCO(4''-OnC5H11)}-[Orn(4R-OH,5R-OCH2CH2NMe3+)]T[Hyp][hTyr(3S-OH,4S-OH)]T[Pro(3S-OH,4S-Me)]; lactam 1-C) | cross-resistance | sensitive | – | – | –
9 | CCCCCOc1ccc(-c2ccc(-c3ccc(C(=O)N[C@H]4C[C@@H](O)[C@@H](O)NC(=O)[C@@H]5[C@@H](O)[C@@H](C)CN5C(=O)[C@H]([C@@H](C)O)NC(=O)[C@H]([C@H](O)[C@@H](O)c5ccc(O)cc5)NC(=O)[C@@H]5C[C@@H](O)CN5C(=O)[C@H]([C@@H](C)O)NC4=O)cc3)cc2)cc1 [ANF, anidulafungin] ({pTerphenylCO(4''-OnC5H11)}-[Orn(4R-OH,5R-OH)]T[Hyp][hTyr(3S-OH,4S-OH)]T[Pro(3S-OH,4S-Me)]; lactam 1-C) | cross-resistance | sensitive | 0.03 | 0.03 | –
